For 19 molecules, Ki and melting point results are on record in US20120245199A1, “[4 [4-(AMINOMETHYL-2-FLUORO-PHENYL)-PIPERIDIN-1-YL]-(1H-PYRROLO-PYRIDIN-YL)-METHANONES AND SYNTHESIS THEREOF” (SANOFI, priority 2009, published 2012).

“And” between values parts separate entries of the source, which are not always exact repeats. Identical values can stand only once. Counter-ions that a name gives are not always drawn.

Series [1] addresses T1, recombinant human beta tryptase (Homo sapiens, UniProt Q15661).
T1 construct: host or cells: yeast cells
The series can be described thus: beta-Tryptase inhibition, chromogenic enzyme assay (S2366 substrate). The series is classed as biochemical. As to conditions: Ki calculated from IC50: Ki=IC50/(1+[Substrate]/Km), 0.5 mM S2366, room temperature. An excerpt:
Inhibition of this catalytic activity may be measured by the in vitro enzyme assay and the cellular assay.
Tryptase inhibition activity is confirmed using either isolated human lung tryptase or recombinant human beta tryptase expressed in yeast cells. Essentially equivalent results are obtained using isolated native enzyme or the expressed enzyme. The assay procedure employs a 96 well microplate (Costar 3590) using L-pyroglutamyl-L-prolyl-L-arginine-para-nitroanilide (S2366: Quadratech) as substrate (essentially as described by McEuen et. al. Biochem Pharm, 1996, 52, pages 331-340). Assays are performed at room temperature using 0.5 mM substrate (2×Km) and the microplate is read on a microplate reader (Beckman Biomek Plate reader) at 405 nm wavelength.
S2366 (Stock solutions of 2.5 mM).
Purified recombinant beta Tryptase Stocks of 310 μg/mL.
• Add 60 μL of diluted substrate (final concentration of 500 μM in assay buffer) to each well • Add compound in duplicates, final concentration of 20 μM, volume 20 μL • Add enzyme at a final concentration of 50 ng/mL in a volume of 20 μL • Total volume for each well is 100 μL • Agitate briefly to mix and incubate at room temp in the dark for 30 minutes • Read absorbencies at […] Each plate has the following controls: • Totals: 60 μL of substrate, 20 μL of buffer (with 0.2% final concentration of DMSO), 20 μL of enzyme • Non-specific: 60 μL of substrate, 40 μL of buffer (with 0.2% DMSO) • Totals: 60 μL of substrate, 20 μL of buffer (No DMSO), 20 μL of enzyme • Non-specific: 60 μL of substrate, 40 μL of buffer (No DMSO)
The protocol is essentially the same as above except that the compound is added in duplicates at the following final concentrations: 0.01, 0.03, 0.1, 0.3, 1, 3, 10 μM (All dilutions carried out manually). For every assay, whether single point or IC50 determination, a standard compound is used to derive IC50 for comparison. From the IC50 value, the Ki can be calculated using the following formula: Ki=IC50/(1+[Substrate]/Km).

T1 sequence (Q15661 31-275): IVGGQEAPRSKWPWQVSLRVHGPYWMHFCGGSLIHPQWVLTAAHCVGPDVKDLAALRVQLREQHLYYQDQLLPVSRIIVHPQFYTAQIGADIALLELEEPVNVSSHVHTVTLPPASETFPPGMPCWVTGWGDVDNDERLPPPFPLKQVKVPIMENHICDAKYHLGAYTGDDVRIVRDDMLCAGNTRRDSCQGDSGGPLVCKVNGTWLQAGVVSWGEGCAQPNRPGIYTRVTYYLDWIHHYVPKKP

For the molecule `COCCn1cc(C(=O)N2CCC(c3cc(CN)ccc3F)CC2)c2nccc(OC)c21` [Example 15, [4-(5-Aminomethyl-2-fluoro-phenyl)-piperidin-1-yl]-[7-methoxy-1-(2-methoxy-ethyl)-1H-pyrrolo[3,2-b]pyridin-3-yl]-methanone dihydrochloride], in series [1], the inhibition constant Ki is 0.0099 µM.
Take `COCCn1cc(C(=O)N2CCC(c3cc(CN)ccc3F)CC2)c2ccnc(Cl)c21` (as salt: hydrochloride) [Example 13, [4-(5-Aminomethyl-2-fluoro-phenyl)-piperidin-1-yl]-[7-chloro-1-(2-methoxy-ethyl)-1H-pyrrolo[2,3-c]pyridin-3-yl]-methanone dihydrochloride]: the melting point was in the range of 163 to 167 °C.
Regarding `NCc1ccc(F)c(C2CCN(C(=O)c3c[nH]c4cnccc34)CC2)c1` [Example 5, [4-(5-Aminomethyl-2-fluoro-phenyl)-piperidin-1-yl]-(1H-pyrrolo[2,3-c]pyridin-3-yl)-methanone dihydrochloride], the Ki in series [1] is 0.22 µM.
The same measure, in the same setting: in the case of `NCc1ccc(F)c(C2CCN(C(=O)c3cn(CCN4CCCC4)c4cccnc34)CC2)c1` [Example 18, [4-(5-Aminomethyl-2-fluoro-phenyl)-piperidin-1-yl]-[1-(2-pyrrolidin-1-yl-ethyl)-1H-pyrrolo[3,2-b]pyridin-3-yl]-methanone trihydrochloride] it was 0.277 µM.
For the molecule `COCCn1cc(C(=O)N2CCC(c3cc(CN)ccc3F)CC2)c2ccnc(C)c21` [Example 14, [4-(5-Aminomethyl-2-fluoro-phenyl)-piperidin-1-yl]-[1-(2-methoxy-ethyl)-7-methyl-1H-pyrrolo[2,3-c]pyridin-3-yl]-methanone], the Ki in series [1] was 0.025 µM.
In the case of `NCc1ccc(F)c(C2CCN(C(=O)c3cc4cccnc4[nH]3)CC2)c1` [Example 1, [4-(5-Aminomethyl-2-fluoro-phenyl)-piperidin-1-yl]-(1H-pyrrolo[2,3-b]pyridin-2-yl)-methanone dihydrochloride], the inhibition constant (Ki) in series [1] is 0.221 µM.
`COCCn1c(C(=O)N2CCC(c3cc(CN)ccc3F)CC2)cc2cccnc21` [Example 2, [4-(5-Aminomethyl-2-fluoro-phenyl)-piperidin-1-yl]-[1-(2-methoxy-ethyl)-1H-pyrrolo[2,3-b]pyridin-2-yl]-methanone dihydrochloride]: the inhibition constant Ki in series [1] is 0.538 µM.
On the same count and under the same terms, next, `COCCn1cc(C(=O)N2CCC(c3cc(CN)ccc3F)CC2)c2cccnc21` [Example 20, [4-(5-Aminomethyl-2-fluoro-phenyl)-piperidin-1-yl]-[1-(2-methoxy-ethyl)-1H-pyrrolo[2,3-b]pyridin-3-yl]-methanone dihydrochloride]: 0.092 µM; `COCCn1cc(C(=O)N2CCC(c3cccc(CN)c3)CC2)c2ccncc21` [Example 8, [4-(3-Aminomethyl-phenyl)-piperidin-1-yl]-[1-(2-methoxy-ethyl)-1H-pyrrolo[2,3-c]pyridin-3-yl]-methanone dihydrochloride]: 0.099 µM.
Consider `NCc1ccc(F)c(C2CCN(C(=O)c3cn(CCN4CCCCC4)c4cccnc34)CC2)c1` [Example 17, [4-(5-Aminomethyl-2-fluoro-phenyl)-piperidin-1-yl]-[1-(2-piperidin-1-yl-ethyl)-1H-pyrrolo[3,2-b]pyridin-3-yl]-methanone trihydrochloride], for which the Ki in series [1] was 0.29 µM.
With `NCc1ccc(F)c(C2CCN(C(=O)c3cn(CCc4ccccc4)c4cccnc34)CC2)c1` [Example 16, [4-(5-Aminomethyl-2-fluoro-phenyl)-piperidin-1-yl]-(1-phenethyl-1H-pyrrolo[3,2-b]pyridin-3-yl)-methanone dihydrochloride], the Ki in series [1] was 0.0029 µM.
As for `COCCn1cc(C(=O)N2CCC(c3cc(CN)ccc3F)CC2)c2cnccc21` [Example 10, [4-(5-Aminomethyl-2-fluoro-phenyl)-piperidin-1-yl]-[1-(2-methoxy-ethyl)-1H-pyrrolo[3,2-c]pyridin-3-yl]-methanone dihydrochloride], the Ki in series [1] was 0.18 µM.
With `COCCn1cc(C(=O)N2CCC(c3cc(CN)ccc3F)CC2)c2ccnc(Cl)c21` [Example 13, [4-(5-Aminomethyl-2-fluoro-phenyl)-piperidin-1-yl]-[7-chloro-1-(2-methoxy-ethyl)-1H-pyrrolo[2,3-c]pyridin-3-yl]-methanone dihydrochloride], in series [1], the Ki is 0.025 µM.
Same read-out and setting: in the case of `COCCn1cc(C(=O)N2CCC(c3cc(CN)ccc3F)CC2)c2ccncc21` [Example 9, [4-(5-Aminomethyl-2-fluoro-phenyl)-piperidin-1-yl]-[1-(2-methoxy-ethyl)-1H-pyrrolo[2,3-c]pyridin-3-yl]-methanone dihydrochloride] it was 0.035 µM.
For `COCCn1c(C(=O)N2CCC(c3cc(CN)ccc3F)CC2)cc2cnccc21` [Example 4, [4-(5-Aminomethyl-2-fluoro-phenyl)-piperidin-1-yl]-[1-(2-methoxy-ethyl)-1H-pyrrolo[3,2-c]pyridin-2-yl]-methanone hydrochloride], in series [1], the inhibitory constant (Ki) was 1.1 µM.
On the same count and under the same terms, next, `COCCn1c(C(=O)N2CCC(c3cccc(CN)c3)CC2)cc2cccnc21` [Example 3, [4-(3-Aminomethyl-phenyl)-piperidin-1-yl]-[1-(2-methoxy-ethyl)-1H-pyrrolo[2,3-b]pyridin-2-yl]-methanone dihydrohydrochloride, dihydrochloride]: 0.915 µM; `NCc1ccc(F)c(C2CCN(C(=O)c3c[nH]c4ncccc34)CC2)c1` [Example 19, [4-(5-Aminomethyl-2-fluoro-phenyl)-piperidin-1-yl]-(1H-pyrrolo[2,3-b]pyridin-3-yl)-methanone dihydrochloride]: 0.203 µM.
`COCCOc1nccc2c(C(=O)N3CCC(c4cc(CN)ccc4F)CC3)cn(CCOC)c12` [Example 11, [4-(5-Aminomethyl-2-fluoro-phenyl)-piperidin-1-yl]-[7-(2-methoxy-ethoxy)-1-(2-methoxy-ethyl)-1H-pyrrolo[2,3-c]pyridin-3-yl]-methanone dihydrochloride]: the Ki in series [1] was 0.166 µM.
On the same count and under the same terms, next, `COCCn1cc(C(=O)N2CCC(c3cc(CN)ccc3F)CC2)c2nccc(C)c21` [Example 12, [4-(5-Aminomethyl-2-fluoro-phenyl)-piperidin-1-yl]-[1-(2-methoxy-ethyl)-7-methyl-1H-pyrrolo[3,2-b]pyridin-3-yl]-methanone dihydrochloride]: 0.023 µM and 0.013 µM.
